The source of these data is patent US11077115B2, “Rorgamma modulators and uses thereof” (Genfit, priority 2017, dated 2021).

Where a name gives a salt, the structure may show the parent alone.

One may read the melting point as the temperature of the solid-liquid transition. As a reminder, the IC50 is the concentration that gives 50% inhibition.

Test system in one data set: not given
Test: not given
Details: not given
Turning to `Cc1ccc(C(NC(=O)Cc2ncc(N3CCS(=O)(=O)CC3)cn2)c2ccc(C)o2)c(N2CCCCC2)c1` (stereo not shown) (as salt: HCl) [Cpd. 65, 2-[5-(1,1-dioxo-1-thiomorpholin-4-yl)pyrimidin-2-yl]-N-{[4-methyl-2-(piperidin-1-yl)phenyl](5-methylfuran-2-yl)methyl}acetamide], the melting point came out at 99 °C.
Still for that read-out and setting: then `Cc1ccc(C(NC(=O)C2(c3ncc(N4CCS(=O)(=O)CC4)cc3C)CC2)c2ccc(C)o2)c(C)c1` (stereo not shown) (as salt: HCl) [Cpd. 72, N-[(2,4-dimethylphenyl)(5-methylfuran-2-yl)methyl]-1-[5-(1,1-dioxo-1-thiomorpholin-4-yl)-3-methylpyridin-2-yl]cyclopropane-1-carboxamide], with 87 °C.
For the compound `Cc1ccc(C(NC(=O)Cc2ccc(N3CCS(=O)(=O)CC3)c(O)c2)c2ccc(C)o2)c(N2CCCCC2)c1` (stereo not shown) (as salt: HCl) [Cpd. 61, 2-[4-(1,1-dioxo-1-thiomorpholin-4-yl)-3-hydroxyphenyl]-N-{[4-methyl-2-(piperidin-1-yl)phenyl](5-methylfuran-2-yl)methyl}acetamide], the melting point was 105 °C.
In the case of `Cc1ccc(C(NC(=O)C2(c3cnc(N4CCS(=O)(=O)CC4)nc3)CC2)c2ccc(Cl)cc2Cl)o1` (stereo not shown) (as salt: HCl) [Cpd. 54, N-[(2,4-dichlorophenyl)(5-methylfuran-2-yl)methyl]-1-[2-(1,1-dioxo-1-thiomorpholin-4-yl)pyrimidin-5-yl]cyclopropane-1-carboxamide], the melting point was determined as 145 °C.
Consider `Cc1ccc(C(NC(=O)Cc2cnc(N3CCS(=O)(=O)CC3)nc2)c2ccc(C)o2)c(C(F)(F)F)c1` (stereo not shown) (as salt: HCl) [Cpd. 33, 2-[2-(1,1-dioxo-1-thiomorpholin-4-yl)pyrimidin-5-yl]-N-{[4-methyl-2-(trifluoromethyl)phenyl](5-methylfuran-2-yl)methyl}acetamide], for which the melting point was determined as 224 °C.
Take `Cc1ccc(C(NC(=O)C2(c3cnc(N4CCS(=O)(=O)CC4)nc3)CC2)c2ccc(Cl)cc2C)o1` (stereo not shown) (as salt: HCl) [Cpd. 53, N-[(4-chloro-2-methylphenyl)(5-methylfuran-2-yl)methyl]-1-[2-(1,1-dioxo-1-thiomorpholin-4-yl)pyrimidin-5-yl]cyclopropane-1-carboxamide]: the melting point was found to be 162 °C.
With `Cc1ccc(C(NC(=O)C2(c3ccc(N4CCS(=O)(=O)CC4)cc3)CC2)c2ccc(C)o2)c(C)c1` (stereo not shown) (as salt: HCl) [Cpd. 31, N-[(2,4-dimethylphenyl)(5-methylfuran-2-yl)methyl]-1-[4-(1,1-dioxo-1-thiomorpholin-4-yl)phenyl]cyclopropane-1-carboxamide], the melting point is 75 °C.
`Cc1ccc(C(NC(=O)Cc2cnc(N3CCS(=O)(=O)CC3)nc2)c2ccc(Cl)cc2Cl)o1` (stereo not shown) (as salt: HCl) [Cpd. 50, N-[(2,4-dichlorophenyl)(5-methylfuran-2-yl)methyl]-2-[2-(1,1-dioxo-1-thiomorpholin-4-yl)pyrimidin-5-yl]acetamide] returned a melting point of 215 °C.
Compound `Cc1ccc(C(NC(=O)Cc2ccc(N3CCOCC3)nc2)c2ccc(C)o2)c(N2CCCCC2)c1` (stereo not shown) (as salt: HCl) [Cpd. 25, N-{[4-methyl-2-(piperidin-1-yl)phenyl](5-methylfuran-2-yl)methyl}-2-[6-(morpholin-4-yl)pyridin-3-yl]acetamide] yielded a melting point of 61 °C.
`Cc1ccc(C(NC(=O)Cc2ccc(N3CCS(=O)(=O)CC3)cc2)c2ccc(C)o2)c(C(F)(F)F)c1` (stereo not shown) (as salt: HCl) [Cpd. 24, 2-[4-(1,1-dioxo-1-thiomorpholin-4-yl)phenyl]-N-{[4-methyl-2-(trifluoromethyl)phenyl](5-methylfuran-2-yl)methyl}acetamide] had a melting point of 90 °C.
On the same count and under the same terms, the value for `Cc1ccc(C(NC(=O)C2(c3cccc(N4CCS(=O)(=O)CC4)c3)CC2)c2ccc(C)o2)c(C)c1` (stereo not shown) (as salt: HCl) [Cpd. 68, N-[(2,4-dimethylphenyl)(5-methylfuran-2-yl)methyl]-1-[3-(1,1-dioxo-1-thiomorpholin-4-yl)phenyl]cyclopropane-1-carboxamide] was 72 °C; that for `COc1ccc(CC(=O)NC(c2ccc(C)o2)c2ccc(C)cc2N2CCCCC2)cc1N1CCS(=O)(=O)CC1` (stereo not shown) (as salt: HCl) [Cpd. 30, 2-[3-(1,1-dioxo-1-thiomorpholin-4-yl)-4-methoxyphenyl]-N-{[4-methyl-2-(piperidin-1-yl)phenyl](5-methylfuran-2-yl)methyl}acetamide] was 88 °C; that for `Cc1ccc(C(NC(=O)Cc2ccc(N3CCS(=O)(=O)CC3)c(C)c2)c2ccccc2)c(N2CC3CC3C2)c1` (stereo not shown) (as salt: HCl) [Cpd. 23, N-[(2-{3-azabicyclo[3.1.0]hexan-3-yl}-4-methylphenyl)(phenyl)methyl]-2-[4-(1,1-dioxo-1-thiomorpholin-4-yl)-3-methylphenyl]acetamide] was 109 °C.
`Cc1ccc(C(NC(=O)Cc2cc(N3CCS(=O)(=O)CC3)ccc2C)c2ccccc2)c(N2CCOCC2)c1` (stereo not shown) (as salt: HCl) [Cpd. 7, 2-[5-(1,1-dioxo-1-thiomorpholin-4-yl)-2-methylphenyl]-N-{[4-methyl-2-(morpholin-4-yl)phenyl](phenyl)methyl}acetamide] yielded a melting point of 219 °C.
`COCc1ccc(CC(=O)NC(c2ccc(C)o2)c2ccc(C)cc2N2CCCCC2)cc1N1CCS(=O)(=O)CC1` (stereo not shown) (as salt: HCl) [Cpd. 62, 2-[3-(1,1-dioxo-1-thiomorpholin-4-yl)-4-(methoxymethyl)phenyl]-N-{[4-methyl-2-(piperidin-1-yl)phenyl](5-methylfuran-2-yl)methyl}acetamide] came in with a melting point of 87 °C.
`Cc1ccc(C(NC(=O)Cc2cnc(N3CCS(=O)(=O)CC3)nc2)c2ccc(C)o2)c(N2CC3CC3C2)c1` (stereo not shown) (as salt: HCl) [Cpd. 36, N-[(2-{3-azabicyclo[3.1.0]hexan-3-yl}-4-methylphenyl)(5-methylfuran-2-yl)methyl]-2-[2-(1,1-dioxo-1-thiomorpholin-4-yl)pyrimidin-5-yl]acetamide] registered a melting point of 105 °C.
In turn, `O=C(Cc1cc(N2CCS(=O)(=O)CC2)ccc1F)NC(c1ccccc1)c1ccccc1N1CCCCC1` (stereo not shown) (as salt: HCl) [Cpd. 3, 2-[5-(1,1-dioxo-1-thiomorpholin-4-yl)-2-fluorophenyl]-N-{phenyl[2-(piperidin-1-yl)phenyl]methyl}acetamide] had a melting point of 184 °C.
Still for that read-out and setting: then `Cc1ccc(C(NC(=O)Cc2cc(N3CCOCC3)ccc2F)c2ccccc2)c(N2CCCCC2)c1` (stereo not shown) (as salt: HCl) [Cpd. 8, 2-[2-fluoro-5-(morpholin-4-yl)phenyl]-N-{[4-methyl-2-(piperidin-1-yl)phenyl](phenyl)methyl}acetamide], with 82 °C; and `Cc1ccc(C(NC(=O)Cc2ccc(N3CCS(=O)(=O)CC3)cc2C)c2ccc(C)o2)c(C)c1` (stereo not shown) (as salt: HCl) [Cpd. 19, N-[(2,4-dimethylphenyl)(5-methylfuran-2-yl)methyl]-2-[4-(1,1-dioxo-1-thiomorpholin-4-yl)-2-methylphenyl]acetamide], with 178 °C.
`COc1ccc(C2(C(=O)NC(c3ccc(C)o3)c3ccc(C)cc3C)CC2)cc1N1CCS(=O)(=O)CC1` (stereo not shown) (as salt: HCl) [Cpd. 69, N-[(2,4-dimethylphenyl)(5-methylfuran-2-yl)methyl]-1-[3-(1,1-dioxo-1-thiomorpholin-4-yl)-4-methoxyphenyl]cyclopropane-1-carboxamide] gave a melting point of 174 °C.
As to `COc1cc(CC(=O)NC(c2ccc(C)o2)c2ccc(C)cc2N2CCCCC2)ccc1N1CCS(=O)(=O)CC1` (stereo not shown) (as salt: HCl) [Cpd. 29, 2-[4-(1,1-dioxo-1-thiomorpholin-4-yl)-3-methoxyphenyl]-N-{[4-methyl-2-(piperidin-1-yl)phenyl](5-methylfuran-2-yl)methyl}acetamide], the melting point turned out to be 90 °C.

The target of a further data set is T1, RORγt ligand-binding domain (RORγt-LBD) (Homo sapiens, UniProt P51449).
T1 construct: 20 nM recombinantly expressed RORγ-LBD fused to GST
T1 sequence (P51449 269-508 limits assumed): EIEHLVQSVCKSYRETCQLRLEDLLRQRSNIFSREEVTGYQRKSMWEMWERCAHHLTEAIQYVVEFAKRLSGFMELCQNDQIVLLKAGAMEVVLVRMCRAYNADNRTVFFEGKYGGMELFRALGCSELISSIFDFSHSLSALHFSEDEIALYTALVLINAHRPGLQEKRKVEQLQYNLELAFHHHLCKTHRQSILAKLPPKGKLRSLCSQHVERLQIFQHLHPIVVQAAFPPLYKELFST
As to the kind of experiment: Time-resolved FRET (TR-FRET) RORγt coactivator assay (RIP140 peptide displacement). Type of data set: biochemical. The following applies: ligand-dependent coactivator-RORγt binding. The source says: Time-resolved FRET (TR-FRET) RORγt coactivator assay was used to identify RORγ modulator compounds with ligand-dependent coactivator displacement. The assay uses a d2-labeled anti-GST antibody, synthetic N-terminally biotinylated peptide which is derived from nuclear receptor coactivator protein RIP140, and a RORγt ligand-binding domain (RORγt-LBD) that is tagged with glutathione-S-transferase (GST). The influence of compounds on the RORγ-peptide interaction relies on the binding dependent energy transfer from a donor to an acceptor fluorophor attached to the binding partner of interest. […] For reduction of background from compound fluorescence, TR-FRET method makes use of generic fluorophore labels and time resolved detection.
The assays were done in a final volume of 20 μl in a 384 well plate in a CHAPS buffer (2 mM CHAPS; 1 mM DTT, 2 mM EDTA; 0.1% BSA), containing 20 nM recombinantly expressed RORγ-LBD fused to GST, 30 nM N-terminally biotinylated peptide, 1 nM streptavidin-terbium conjugate and 20 nM d2 labeled-anti-GST. Test compounds were diluted using 10 mM stock solution. The range of the final compound concentrations used in this test was from 0.3 nM to 30 μM (logarithmic scale). DMSO content of the samples was kept at 1%. The assay was equilibrated for 2 hours in the dark at room temperature in 384 well plates (Falcon). The signal was detected by an Ultra384 reader (TECAN). […] Compounds that promote coactivator displacement induce a concentration-dependent decrease in time-resolved fluorescent signal. Data were collected and analyzed using GraphPad Prism software (GraphPad Software V5.02, San Diego Calif. USA). IC50 in μM and E max in % were reported for each compound.
In general terms: In TR-FRET formats the signal depends on donor and acceptor labels being close together.
Regarding `Cc1ccc(C(NC(=O)Cc2cnc(N3CCS(=O)(=O)CC3)nc2)c2ccc(C)o2)c(Cl)c1` (stereo not shown) [Cpd. 51, N-[(2-chloro-4-methylphenyl)(5-methylfuran-2-yl)methyl]-2-[2-(1,1-dioxo-1-thiomorpholin-4-yl)pyrimidin-5-yl]acetamide], the IC50 lay within 1 to 10 µM.
